Source: patent publication US20240013855A1, “METHOD OF SEARCHING FOR SPECIFIC-BINDING FUNCTIONAL SUBSTANCES, SPECIFIC-BINDING FUNCTIONAL SUBSTANCE SEARCH SYSTEM, SPECIFIC-BINDING FUNCTIONAL SUBSTANCE SEARCH METHOD, AND PROGRAM” (SHINSHU UNIVERSITY, priority 2020, published 2024)

What was measured:
[1] = target: kinase SRC (Homo sapiens, UniProt P12931); assay: Kinase SRC inhibitory activity with and without heating/cooling; type: biochemical; settings: for inhibitory activity on SRC compared with DYRK1A: temperature jump; for inhibition of kinase SRC: with and without heating/cooling, IC80 concentration for temperature-jump inhibition of DYRK1A
kinase SRC, sequence (P12931 whole entry): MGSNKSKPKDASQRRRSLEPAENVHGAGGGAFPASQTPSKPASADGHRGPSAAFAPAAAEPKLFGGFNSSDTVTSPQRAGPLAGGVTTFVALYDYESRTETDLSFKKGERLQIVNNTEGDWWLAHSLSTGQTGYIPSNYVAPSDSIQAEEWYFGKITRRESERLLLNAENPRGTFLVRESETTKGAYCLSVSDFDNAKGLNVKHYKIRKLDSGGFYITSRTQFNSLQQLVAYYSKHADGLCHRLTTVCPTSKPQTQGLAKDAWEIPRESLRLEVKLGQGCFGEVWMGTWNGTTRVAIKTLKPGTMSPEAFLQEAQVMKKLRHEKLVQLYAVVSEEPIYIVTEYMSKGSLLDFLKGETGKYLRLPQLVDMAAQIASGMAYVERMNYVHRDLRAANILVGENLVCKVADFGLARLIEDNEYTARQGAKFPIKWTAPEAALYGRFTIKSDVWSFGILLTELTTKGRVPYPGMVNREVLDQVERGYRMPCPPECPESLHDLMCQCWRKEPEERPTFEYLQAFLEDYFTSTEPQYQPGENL
Description: (§1) Here, inhibitory effects on other kinases were studied.
(§2) As a result, for the kinase DYRK1A, the upper-limit temperature of 67.0° C. and lower-limit temperature of 57.5° C. were calculated as temperature conditions based on the measured data, as shown in FIG. 16. Consequently, the setpoint heating temperature for the temperature jump test was set to 62.0° C. […] Consequently, the setpoint heating temperature for the temperature jump test was set to 53.7° C. Also, for the kinase SRC, the upper-limit temperature of 59.6° C. and lower-limit temperature of 51.4° C. were calculated as temperature conditions based on the measured data, as shown in FIG. 18. Consequently, the setpoint heating temperature for the temperature jump test was set to 55.5° C. Also, for the kinase ABL, the upper-limit temperature of 55.6° C. and lower-limit temperature of 47.3° C. were calculated as temperature conditions based on the measured data, as shown in FIG. 19. Consequently, the setpoint heating temperature for the temperature jump test was set to 52.0° C.

[2] = target: ABL in HEK293 cells (Homo sapiens, UniProt P00519); assay: Western blotting detection of ABL in cultured cell line HEK293; settings: HEK293 cultured for 4 days in the presence of compound
ABL in HEK293 cells, sequence (P00519 whole entry): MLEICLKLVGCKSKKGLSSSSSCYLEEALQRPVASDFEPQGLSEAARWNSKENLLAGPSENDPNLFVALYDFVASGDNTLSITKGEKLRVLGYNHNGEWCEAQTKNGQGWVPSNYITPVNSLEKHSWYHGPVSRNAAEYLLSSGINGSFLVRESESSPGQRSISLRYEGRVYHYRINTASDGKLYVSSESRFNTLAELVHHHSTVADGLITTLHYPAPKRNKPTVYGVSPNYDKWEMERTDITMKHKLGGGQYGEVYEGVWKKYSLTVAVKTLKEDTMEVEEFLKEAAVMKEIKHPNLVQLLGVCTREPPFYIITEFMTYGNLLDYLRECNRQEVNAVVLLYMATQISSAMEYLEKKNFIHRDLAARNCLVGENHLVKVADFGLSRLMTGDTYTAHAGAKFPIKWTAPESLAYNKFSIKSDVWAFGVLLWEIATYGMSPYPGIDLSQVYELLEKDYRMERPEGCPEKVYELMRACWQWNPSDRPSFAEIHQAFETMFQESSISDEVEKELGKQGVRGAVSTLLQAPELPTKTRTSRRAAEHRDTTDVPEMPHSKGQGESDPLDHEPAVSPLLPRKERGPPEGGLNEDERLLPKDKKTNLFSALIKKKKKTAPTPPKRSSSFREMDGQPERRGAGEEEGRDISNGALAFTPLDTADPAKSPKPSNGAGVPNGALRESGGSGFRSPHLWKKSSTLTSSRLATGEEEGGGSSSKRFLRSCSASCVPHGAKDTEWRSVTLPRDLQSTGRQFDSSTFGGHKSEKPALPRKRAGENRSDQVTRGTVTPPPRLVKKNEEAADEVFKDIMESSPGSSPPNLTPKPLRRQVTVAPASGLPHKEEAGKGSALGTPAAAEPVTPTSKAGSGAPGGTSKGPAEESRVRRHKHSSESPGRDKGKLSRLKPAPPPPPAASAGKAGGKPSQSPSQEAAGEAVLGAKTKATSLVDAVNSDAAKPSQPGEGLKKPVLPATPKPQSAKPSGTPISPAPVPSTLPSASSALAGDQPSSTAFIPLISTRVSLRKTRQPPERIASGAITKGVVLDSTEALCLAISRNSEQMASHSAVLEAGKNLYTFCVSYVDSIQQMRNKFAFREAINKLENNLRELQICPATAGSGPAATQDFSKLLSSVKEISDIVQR
Description: Additionally, a western blotting detection using the cultured cell line HEK293 was conducted. […] Using the SDS-PAGE and western blotting methods, ABL and GAPDH were detected using antibodies specific to the two.

[3] = target: kinase ABL (Homo sapiens, UniProt P00519); assay: Kinase ABL inhibitory activity with and without heating/cooling; type: biochemical
kinase ABL, sequence (P00519 whole entry): as above
Description: as §1, §2

[4] = target: kinase DYRK1B (Homo sapiens, UniProt Q9Y463); assay: Kinase DYRK1B inhibitory activity with and without heating/cooling; type: biochemical; settings: for inhibitory activity without heating/cooling: complete protein not heated/cooled; for inhibitory effect specific to the folding intermediate undergoing heating/cooling: with versus without heating/cooling
kinase DYRK1B, sequence (Q9Y463 whole entry): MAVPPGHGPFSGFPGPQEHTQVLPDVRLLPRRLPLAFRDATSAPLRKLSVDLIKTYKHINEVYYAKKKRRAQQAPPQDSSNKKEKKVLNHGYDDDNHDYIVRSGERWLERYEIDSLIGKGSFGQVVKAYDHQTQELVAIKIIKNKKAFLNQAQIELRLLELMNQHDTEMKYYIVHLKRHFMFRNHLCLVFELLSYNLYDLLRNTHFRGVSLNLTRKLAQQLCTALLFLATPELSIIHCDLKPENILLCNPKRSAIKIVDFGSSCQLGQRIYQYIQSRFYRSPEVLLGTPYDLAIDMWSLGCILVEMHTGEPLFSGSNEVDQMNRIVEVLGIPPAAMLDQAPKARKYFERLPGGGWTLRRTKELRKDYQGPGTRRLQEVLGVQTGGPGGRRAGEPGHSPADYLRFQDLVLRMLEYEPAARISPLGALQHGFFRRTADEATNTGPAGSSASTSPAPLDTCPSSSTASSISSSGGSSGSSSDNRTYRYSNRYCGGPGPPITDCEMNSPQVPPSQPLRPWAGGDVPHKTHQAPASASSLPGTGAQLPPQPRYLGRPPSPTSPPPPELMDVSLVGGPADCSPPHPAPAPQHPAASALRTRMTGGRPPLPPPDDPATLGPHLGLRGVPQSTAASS
Description: Consequently, the setpoint heating temperature for the temperature jump test was set to 62.0° C. […] Consequently, the setpoint heating temperature for the temperature jump test was set to 52.0° C.

[5] = target: Kinase DYRK1A (Homo sapiens, UniProt Q13627); assay: Kinase DYRK1A enzymatic activity (Kinase Glo, remaining ATP) with or without heating/quick cooling (temperature jump); type: biochemical; settings: for inhibitory effect on the complete protein that was not heated/cooled: no heating/cooling (conventional evaluation); for inhibitory effect specific to the folding intermediate undergoing heating/cooling: with versus without heating/cooling (temperature jump)
Description: Lastly, in the embodiment, the effect of the presence of the candidate functional substance in influencing the function of the protein is determined (step C). For example, what is determined is, such as, inhibitory effect when searching for an inhibitor, accelerative effect when searching for an accelerator, coagulative effect when searching for a coagulant, stabilizing effect when searching for a stabilizer, or activating effect when searching for an activator, as a functional substance. […] As an example, in this process a determination can be made by using the Promega Kinase Glo assay kit, etc., to quantify the amount of ATP remaining in the tube, and thereby measuring its enzymatic activity. It should be noted that the determination of inhibitory effect is not limited to one based on use of the aforementioned kit, etc.
• Kinase DYRK1A protein mass: 25 ng • DMSO concentration: 0.3% in 25 μL • ATP/substrate peptide (DYRKtide peptide: amino-acid sequence […]) concentration: 5 μM each • Volume at enzymatic reaction: 25 μL • Volume in thermal cycler (Biometra TAdvanced Model 96SG): 15 μL • Enzymatic reaction period: 2 hrs.
• 1. The DYRK1A protein, inhibitors (solvent DMSO alone was added in the case of “Inhibitor 0 μM”), buffer (final concentrations: 5 mM MOPS pH7.2, 2.5 mM beta-glycerol-phosphate, 5 mM MgCl2, 1 mM EGTA, 0.4 mM EDTA, 0.05 mM DTT) and ultrapure water were mixed in tubes placed in a white 96-well PCR plate. [Volume: 15 μL, DYRK1A protein mass: 25 ng, inhibitor concentration: 30 μM] • 2. The plate was set in a thermal cycler and heated for 20 seconds at each heating temperature, and then cooled for 10 seconds at 3° C. [Rate of heating/rate of cooling both 8° C./sec.] • 3. Upon completion of cooling, it was removed immediately and 10 μL of ATP/substrate peptide mixture solution was added. [Volume: 15 μL→25 μL, ATP/substrate peptide concentration 5 μM] • 4. It was set in the thermal cycler again to cause enzymatic reaction for 2 hours […] at 20° C. • 5. It was picked up from the thermal cycler and 25 μL of Kinase Glo reaction solution was added, and from the resulting luminescence value, the remaining amount of ATP was measured to evaluate the enzymatic activity. [Volume: 25 μL 50 μL]

[6] = target: T1, monoamine oxidase MAO-A (Homo sapiens, UniProt P21397); assay: Small-scale screening on monoamine oxidase MAO-A with temperature jump (MAO-A-Glo Assay); type: biochemical; settings: temperature jump 69.2° C; plant-derived compound library (1 to 34)
T1 sequence (P21397 1-527): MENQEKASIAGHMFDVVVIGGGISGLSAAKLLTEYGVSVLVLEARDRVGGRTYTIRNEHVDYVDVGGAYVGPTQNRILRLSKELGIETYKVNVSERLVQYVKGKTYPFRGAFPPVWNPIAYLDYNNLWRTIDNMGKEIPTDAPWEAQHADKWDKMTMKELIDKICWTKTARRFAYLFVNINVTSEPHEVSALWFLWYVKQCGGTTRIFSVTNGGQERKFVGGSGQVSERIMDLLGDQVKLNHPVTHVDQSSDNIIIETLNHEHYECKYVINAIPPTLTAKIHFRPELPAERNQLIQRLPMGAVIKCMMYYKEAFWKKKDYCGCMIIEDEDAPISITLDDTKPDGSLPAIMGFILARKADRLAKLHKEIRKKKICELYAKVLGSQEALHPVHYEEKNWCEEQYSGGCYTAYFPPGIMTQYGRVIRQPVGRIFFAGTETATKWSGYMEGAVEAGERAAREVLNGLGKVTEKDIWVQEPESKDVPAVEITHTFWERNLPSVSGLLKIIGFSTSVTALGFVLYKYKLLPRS
Description: Also, the monoamine oxidase MAO-A was studied as a way to set the upper-limit temperatures and lower-limit temperatures in FIG. 11 to FIG. 13. FIG. 20 is a figure showing the study results on upper-limit temperature and lower-limit temperature for the monoamine oxidase MAO-A. It should be noted that the test was conducted according to the product manual for Promega's MAO-A-Glo™ Assay Systems. It should be noted that the relative enzymatic activity was calculated based on the enzymatic activity at 40° C. being 1.0.
As a result, for the […] MAO-A, the upper-limit temperature of 76.4° C. and lower-limit temperature of 62.0° C. were calculated as temperature conditions based on the measured data, as shown in FIG. 20. Consequently, the setpoint heating temperature for the temperature jump test was set to 69.2° C. FIG. 21 is a figure showing the small-scale inhibitor screening results with respect to the monoamine oxidase MAO-A.

[7] = target: T2, DYRK1A in HEK293 cells (Homo sapiens, UniProt Q13627); assay: Western blotting detection of DYRK1A in cultured cell line HEK293; type: cell-based; settings: HEK293 cultured for 4 days in the presence of compound
T2 construct: endogenous in cells; host or cells: HEK293
Description: To be more specific, a study was conducted by western blotting using the cultured cell line HEK293.

| SMILES | inhibitory activity on SRC compared with DYRK1A [1] | inhibition of kinase SRC [1] | inhibitory activity without heating/cooling [4] | inhibitory effect specific to the folding intermediate undergoing heating/cooling [4] | inhibitory effect on the complete protein that was not heated/cooled [5] | inhibitory effect specific to the folding intermediate undergoing heating/cooling [5] | further results |
| --- | --- | --- | --- | --- | --- | --- | --- |
| COc1ccc(/C=C2\SC(=S)NC2=O)cc1C#C[Si](C)(C)C [FINDY] | weaker than those on DYRK1A | inhibited the kinase SRC in a temperature jump-dependent manner | – | – | – | – | ABL band in western blotting (activity to decompose/remove ABL) [2]: became fainter; inhibitory activity on ABL compared with DYRK1A ([3]; temperature jump): stronger than that on DYRK1A; inhibition of kinase ABL ([3]; with and without heating/cooling): strongly inhibited the kinase ABL in a temperature jump-dependent manner |
| COc1ccc2c(c1)[nH]c1c(C)nccc12 [Harmine] | – | – | exhibited an inhibitory effect | did not exhibit a specific inhibitory effect | exhibited an inhibitory effect | did not exhibit a specific inhibitory effect | – |
| CCOc1cc(/C=C2\SC(=S)NC2=O)ccc1O [RD0392] | – | – | exhibited an inhibitory effect | did not exhibit a specific inhibitory effect | exhibited an inhibitory effect | did not exhibit a specific inhibitory effect | – |
| COc1ccc(/C=C2\SC(=S)NC2=O)cc1C#C[Si](C)(c1ccccc1)c1ccccc1 [compound 168] | weaker than those on DYRK1A | inhibited the kinase SRC in a temperature jump-dependent manner | – | – | – | – | – |
| O=C(O[C@H]1Cc2ccccc2C[C@H]1OC(=O)c1cc(O)c(O)c(O)c1)c1cc(O)c(O)c(O)c1 [compound No. 2] | – | – | – | – | – | exhibited a specific inhibitory effect only with the folding intermediate | temperature jump-dependent inhibitory activity on MAO-A [6]: temperature jump-dependent inhibitory activity was confirmed; DYRK1A band in western blotting (activity to decompose/remove DYRK1A) [7]: became fainter |
